{"source": "patent US4256742A", "about": "“Antidepressant oxime ethers of dibenzocycloheptaziridones” (E. I. Du Pont de Nemours and Company, priority 1979, dated 1981)", "key": {"[1]": {"assay": "Water solubility of the salts", "assay_type": "physicochemical", "settings": "salt as isolated"}, "[2]": {"system": "tetrabenazine-induced sedation and depression", "assay": "Antitetrabenazine test: prevention of tetrabenazine-induced sedation and ptosis in mice", "assay_type": "in vivo, mice (Carworth CF1 S female)", "settings": "tetrabenazine 32 mg/kg i.p. 30 min later, examined 1 h after antagonist; for ED50: Mus musculus", "description": "This mouse test is predictive of human antidepressant response (Everett, \"The Dopa Response Petentiation Test and Its Use in Screening for Antidepressant Drugs\", pp. 164-167 in \"Antidepressant Drugs\" [Proceedings of the First International Symposium], S. Garattini and M. N. G. Dukes, eds. 1967).\nGroups of 10 Carworth CF1 S female mice, 18-21 g each, were fasted 1.5 hours and were intubated with antagonist compounds at oral doses of 0, 0.33, 1, 3, 9, 27, and 81 mg/kg in 0.20 ml of 1% Methocel. The mice were challenged 30 minutes later with tetrabenazine (as the methane-sulfonate),32 mg/kg intraperitoneally (dissolved in 0.20 ml 0.05 M KCl at pH 2.0). One hour after antagonist (30 minutes after tetrabenazine), the mice were examined for signs of exploratory activity and ptosis (eyelid closure). Normal exploratory activity (relief from sedation) was recorded when a mouse lifted by the tail from a group of 10 in a testing box and placed on a stainless steel testing box lid (12.5\"×8\" with 0.33\" mesh) either turned its head horizontally 30° in both directions or moved to the edge of the screen within 10 seconds after being placed on the screen. Relief from ptosis was recorded when exactly two seconds after placing the mouse facing the observer, lid closure was less than 50% in both eyes. Table 1 gives the results in mg/kg for examples of the invention and for the established standard antidepressant, amitriptyline."}, "[3]": {"settings": "po, 1 h, read-out: ED50 in antitetrabenazine test, blockade of exploratory loss (Explor.), oral, female mice, normal exploratory activity (relief from sedation)"}, "[4]": {"settings": "po, 1 h, read-out: ED50 in antitetrabenazine test, blockade of ptosis, oral, female mice, relief from ptosis"}, "[5]": {"settings": "oral, female mice, normal exploratory activity (relief from sedation), read-out: ED50 in antitetrabenazine test, blockade of exploratory loss (Explor.)"}, "[6]": {"settings": "oral, female mice, relief from ptosis, read-out: ED50 in antitetrabenazine test, blockade of ptosis"}}, "note": "Counter-ions that a name gives are not always drawn. Like-named read-outs stand apart in the source and are kept apart here.", "data": [{"compound": "CN(C)CCON=C1c2ccccc2C2NC2c2ccccc21", "note": "(stereo not shown) [Example 17]", "values": [{"measurement": "water solubility (in words)", "setting": "[1]", "value": "Water Soluble"}, {"measurement": "ED50 in antitetrabenazine test, blockade of exploratory loss (Explor.)", "setting": "[2]; oral, female mice, normal exploratory activity (relief from sedation), listed as R^2=CH2 CH2 N(CH3)2, R^1=H, Z=. Tartrate, 60 min", "value": 0.57, "unit": "mg/kg"}, {"measurement": "ED50 in antitetrabenazine test, blockade of ptosis", "setting": "[2]; oral, female mice, relief from ptosis, listed as R^2=CH2 CH2 N(CH3)2, R^1=H, Z=. Tartrate, 60 min", "value": 0.33, "unit": "mg/kg"}]}, {"compound": "CN(C)CCON=C1c2ccccc2C2C(c3ccccc31)N2CC1CC1", "note": "(stereo not shown) [Example 21]", "values": [{"measurement": "ED50", "setting": "[2]; [3]", "value": 11.8, "unit": "mg/kg"}, {"measurement": "ED50", "setting": "[2]; [4]", "value": 10.8, "unit": "mg/kg"}]}, {"compound": "CN(C)CCON=C1c2ccccc2C2C(c3ccccc31)N2C(=O)c1ccccc1", "note": "(stereo not shown) [R^2=CH2 CH2 N(CH3)2; R^1=drawing 44; Z=--]", "values": [{"measurement": "ED50", "setting": "[2]; [5]", "value": 5.5, "unit": "mg/kg"}, {"measurement": "ED50", "setting": "[2]; [6]", "value": 5.2, "unit": "mg/kg"}]}, {"compound": "NCCON=C1c2ccccc2C2NC2c2ccccc21", "note": "(stereo not shown) [Example 7]", "values": [{"measurement": "ED50 in antitetrabenazine test, blockade of exploratory loss (Explor.)", "setting": "[2]; oral, female mice, normal exploratory activity (relief from sedation), listed as R^2=CH2 CH2 NH2, R^1=H, Z=--, 60 min", "value": 6.6, "unit": "mg/kg"}, {"measurement": "ED50 in antitetrabenazine test, blockade of ptosis", "setting": "[2]; oral, female mice, relief from ptosis, listed as R^2=CH2 CH2 NH2, R^1=H, Z=--, 60 min", "value": 1.3, "unit": "mg/kg"}]}, {"compound": "CNCCON=C1c2ccccc2C2NC2c2ccccc21", "note": "(stereo not shown) [Example 20]", "values": [{"measurement": "water solubility (in words)", "setting": "[1]", "value": "Water Soluble"}, {"measurement": "ED50 in antitetrabenazine test, blockade of exploratory loss (Explor.)", "setting": "[2]; oral, female mice, normal exploratory activity (relief from sedation), listed as R^2=CH2 CH2 NHCH3, R^1=H, Z=drawing 42, 60 min", "value": 6.2, "unit": "mg/kg"}, {"measurement": "ED50 in antitetrabenazine test, blockade of ptosis", "setting": "[2]; oral, female mice, relief from ptosis, listed as R^2=CH2 CH2 NHCH3, R^1=H, Z=drawing 42, 60 min", "value": 1.3, "unit": "mg/kg"}]}, {"compound": "CN(C)CCC=C1c2ccccc2CCc2ccccc21", "note": "[AMTRIPTYLINE, amitriptyline, reference compound]", "values": [{"measurement": "ED50", "setting": "[2]; [5]", "value": 2.6, "unit": "mg/kg"}, {"measurement": "ED50", "setting": "[2]; [6]", "value": 1.2, "unit": "mg/kg"}]}, {"compound": "c1ccc2c(c1)C(=NOCCN1CCCCC1)c1ccccc1C1NC21", "note": "(stereo not shown) [R^2=drawing 45; R^1=H; Z=--]", "values": [{"measurement": "ED50", "setting": "[2]; [3]", "value": "> 81", "unit": "mg/kg"}, {"measurement": "ED50", "setting": "[2]; [4]", "value": 8.3, "unit": "mg/kg"}]}, {"compound": "CC(=O)N1C2c3ccccc3C(=NOCCN(C)C)c3ccccc3C21", "note": "(stereo not shown) [R^2=CH2 CH2 N(CH3)2; R^1=drawing 43; Z=--]", "values": [{"measurement": "ED50", "setting": "[2]; [5]", "value": 19, "unit": "mg/kg"}, {"measurement": "ED50", "setting": "[2]; [6]", "value": 13, "unit": "mg/kg"}]}, {"compound": "CN(C)CCON=C1c2ccccc2C2C(c3ccccc31)N2C", "note": "(stereo not shown) [Example 3, O-[2-(Dimethylamino)ethyl]oxime of 1a,10b-Dihydrodibenzo-[3,4,6,7]cyclohept[1,2-b]-N-methylazirin-6(1H)-one]", "values": [{"measurement": "ED50", "setting": "[2]; [4]", "value": 0.65, "unit": "mg/kg"}, {"measurement": "ED50 in antitetrabenazine test, blockade of exploratory loss (Explor.)", "setting": "[2]; oral, female mice, normal exploratory activity (relief from sedation), listed as R^2=CH2 CH2 N(CH3)2, R^1=CH3, Z=--, 60 min", "value": 0.93, "unit": "mg/kg"}]}, {"compound": "CN(C)CCON=C1c2ccccc2C2C(c3ccccc31)N2C", "note": "(stereo not shown) [Example 16, Tartaric acid Salt of O-[2-(dimethylamino)ethyl]oxime of 1a, 10b-dihydrodibenzo[3,4,6,7]cyclohept[1,2-b]-N-methylazirin-6(1H)-one]", "values": [{"measurement": "water solubility (in words)", "setting": "[1]", "value": "watersoluble"}, {"measurement": "ED50 in antitetrabenazine test, blockade of exploratory loss (Explor.)", "setting": "[2]; oral, female mice, normal exploratory activity (relief from sedation), listed as R^2=CH2 CH2 N(CH3)2, R^1=CH3, Z=. Tartrate, 60 min", "value": 2.7, "unit": "mg/kg"}, {"measurement": "ED50 in antitetrabenazine test, blockade of ptosis", "setting": "[2]; oral, female mice, relief from ptosis, listed as R^2=CH2 CH2 N(CH3)2, R^1=CH3, Z=. Tartrate, 60 min", "value": 0.93, "unit": "mg/kg"}]}, {"compound": "CNCCON=C1c2ccccc2C2NC2c2ccccc21", "note": "(stereo not shown) [Example 8]", "values": [{"measurement": "ED50 in antitetrabenazine test, blockade of exploratory loss (Explor.)", "setting": "[2]; oral, female mice, normal exploratory activity (relief from sedation), listed as R^2=CH2 CH2 NHCH3, R^1=H, Z=--, 60 min", "value": 1.9, "unit": "mg/kg"}, {"measurement": "ED50 in antitetrabenazine test, blockade of ptosis", "setting": "[2]; oral, female mice, relief from ptosis, listed as R^2=CH2 CH2 NHCH3, R^1=H, Z=--, 60 min", "value": 0.57, "unit": "mg/kg"}]}, {"compound": "c1ccc2c(c1)C(=NOCCN1CCOCC1)c1ccccc1C1NC21", "note": "(stereo not shown) [R^2=drawing 46; R^1=H; Z=--]", "values": [{"measurement": "ED50", "setting": "[2]; [3]", "value": 16, "unit": "mg/kg"}, {"measurement": "ED50", "setting": "[2]; [4]", "value": 5.2, "unit": "mg/kg"}]}, {"compound": "CN(C)CCCON=C1c2ccccc2C2NC2c2ccccc21", "note": "(stereo not shown) [Example 9]", "values": [{"measurement": "ED50", "setting": "[2]; [3]", "value": 32, "unit": "mg/kg"}, {"measurement": "ED50", "setting": "[2]; [4]", "value": 18, "unit": "mg/kg"}]}, {"compound": "CN(C)CCON=C1c2ccccc2C2C(c3ccccc31)N2CC1CCC1", "note": "(stereo not shown) [Example 22]", "values": [{"measurement": "ED50", "setting": "[2]; [3]", "value": 16, "unit": "mg/kg"}, {"measurement": "ED50", "setting": "[2]; [4]", "value": 10.8, "unit": "mg/kg"}]}, {"compound": "CN(C)CCON=C1c2ccccc2C2NC2c2ccccc21", "note": "(stereo not shown) [Example 2, O-[2-(Dimethylamino)ethyl]oxime of 1a,10b-dihydrodibenzo[3,4,6,7]cyclohept[1,2-b]azirin-6(1H)-one]", "values": [{"measurement": "ED50 in antitetrabenazine test, blockade of exploratory loss (Explor.)", "setting": "[2]; oral, female mice, normal exploratory activity (relief from sedation), listed as R^2=CH2 CH2 N(CH3)2, R^1=H, Z=--, 60 min", "value": 1.1, "unit": "mg/kg"}, {"measurement": "ED50 in antitetrabenazine test, blockade of ptosis", "setting": "[2]; oral, female mice, relief from ptosis, listed as R^2=CH2 CH2 N(CH3)2, R^1=H, Z=--, 60 min", "value": 0.65, "unit": "mg/kg"}]}, {"compound": "NCCON=C1c2ccccc2C2NC2c2ccccc21", "note": "(stereo not shown) [Example 19]", "values": [{"measurement": "water solubility (in words)", "setting": "[1]", "value": "Water Soluble"}, {"measurement": "ED50 in antitetrabenazine test, blockade of exploratory loss (Explor.)", "setting": "[2]; oral, female mice, normal exploratory activity (relief from sedation), listed as R^2=CH2 CH2 NH2, R^1=H, Z=drawing 41, 60 min", "value": "14.", "unit": "mg/kg"}, {"measurement": "ED50 in antitetrabenazine test, blockade of ptosis", "setting": "[2]; oral, female mice, relief from ptosis, listed as R^2=CH2 CH2 NH2, R^1=H, Z=drawing 41, 60 min", "value": 3.4, "unit": "mg/kg"}]}, {"compound": "CCNCCON=C1c2ccccc2C2NC2c2ccccc21", "note": "(stereo not shown) [Example 14]", "values": [{"measurement": "ED50", "setting": "[2]; [3]", "value": 9, "unit": "mg/kg"}, {"measurement": "ED50", "setting": "[2]; [4]", "value": 4.3, "unit": "mg/kg"}]}, {"compound": "CCCCNCCON=C1c2ccccc2C2NC2c2ccccc21", "note": "(stereo not shown) [Example 15]", "values": [{"measurement": "ED50", "setting": "[2]; [3]", "value": "> 81", "unit": "mg/kg"}, {"measurement": "ED50", "setting": "[2]; [4]", "value": 13.3, "unit": "mg/kg"}]}, {"compound": "CN(C)CCON=C1c2ccccc2C2NC2c2ccccc21", "note": "(stereo not shown) [Example 18]", "values": [{"measurement": "water solubility (in words)", "setting": "[1]", "value": "Water Soluble"}, {"measurement": "ED50 in antitetrabenazine test, blockade of exploratory loss (Explor.)", "setting": "[2]; oral, female mice, normal exploratory activity (relief from sedation), listed as R^2=CH2 CH2 N(CH3)2, R^1=H, Z=. HCl, 60 min", "value": 2.2, "unit": "mg/kg"}, {"measurement": "ED50 in antitetrabenazine test, blockade of ptosis", "setting": "[2]; oral, female mice, relief from ptosis, listed as R^2=CH2 CH2 N(CH3)2, R^1=H, Z=. HCl, 60 min", "value": 1.0, "unit": "mg/kg"}]}]}
